Laboratory results published in patent publication US8871767B2, “2-arylimidazo[1,2-B]pyridazine, 2-phenylimidazo[1,2-A]pyridine, and 2-phenylimidazo[1,2-A]pyrazine derivatives” (Hengrui (USA) Ltd., priority 2010, dated 2014).
Read-outs that look alike come from different tables or passages of the source.

How the values were obtained:
[1] = system: Hedgehog pathway activation (GLi-luciferase reporter) in Shh Light II reporter cells; assay: Hedgehog pathway activation on Shh Light II reporter cells measured by luciferase activity; format: cell-based; conditions: Mus musculus, Shh Light II
How it was run: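 Shh Light II reporter cells carrying a hedgehog-responsive GLi-luciferase reporter were stimulated either with 500 nM SAG, a direct Smoothened agonist, or with conditioned media containing human Sonic Hedgehog (hShh). Test compounds were evaluated for blocking this pathway activation, quantified by luciferase activity. Cell viability was monitored in parallel with the Celltiter-Blue® assay.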

[2] = system: Hedgehog pathway activation on 10T1/2/Smo#3 cells (C3H10T1/2 cells transfected with human Smoothened receptor); assay: Hedgehog pathway activation on 10T1/2/Smo#3 cells measured by ALP activity; format: cell-based; conditions: Mus musculus, C3H 10T1/2, 10T1/2/Smo#3 cells
How it was run: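 Inhibition of alkaline phosphatase induction, read fluorometrically from 4-methylumbelliferyl phosphate conversion, gave IC50 values; CellTiter-Blue tracked viability in parallel. Cells were the human Smo-transfected 10T1/2/Smo#3 pool, stimulated by 10-20% hShh conditioned medium or the Smo agonist SAG (500 nM).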

[3] = hShh activation, read-out: Shh (IC50, inhibition of Hedgehog pathway activation)
[4] = measured by ALP activity, read-out: ALP (IC50, inhibition of Hedgehog pathway activation)
[5] = SAG activation (500 nM SAG), read-out: Shh Light II luciferase activity (SAG activation)
[6] = hShh activation, read-out: Shh Light II luciferase activity (hShh activation)
[7] = hShh activation, ALP activity, read-out: 10T1/2/Smo#3 ALP activity (hShh Activation)

| IC50 [1, 3] [nM] | IC50 [2, 4] [nM] | IC50 [1, 5] [nM] | IC50 [1, 6] [nM] | IC50 [2, 7] [nM] | Structure (SMILES) |
| --- | --- | --- | --- | --- | --- |
| 3090 | 1710 |  |  |  | CC(C)(C)C(=O)Nc1cc(-c2cn3nc(-c4cnccc4Cl)ccc3n2)ccc1C(F)(F)F [Example 386, N-(5-(6-(4-chloropyridin-3-yl)imidazo[1,2-b]pyridazin-2-yl)-2-(trifluoromethyl)phenyl)pivalamide] |
| 270 | 469 | 300 to 3000 | < 300 | 300 to 3000 | Cc1ncc(-c2cn3nc(-c4ccccc4F)ccc3n2)cc1NC(=O)C(C)(C)C [Example 390, N-(5-(6-(2-fluorophenyl)imidazo[1,2-b]pyridazin-2-yl)-2-methylpyridin-3-yl)pivalamide] |
| 57 | 123 | 300 to 3000 | < 300 | < 300 | CN[C@@H]1CCN(c2ccc3nc(-c4ccc(C)c(NC(=O)C(C)(C)C)c4)cn3n2)C1 [Example 391, (R)-N-(2-methyl-5-(6-(3-(methylamino)pyrrolidin-1-yl)imidazo[1,2-b]pyridazin-2-yl)phenyl)pivalamide] |
| 77 | 93 |  |  |  | CN[C@H]1CCN(c2ccc3nc(-c4ccc(C)c(NC(=O)C(C)(C)C)c4)cn3n2)C1 [Example 392, (S)-N-(2-methyl-5-(6-(3-(methylamino)pyrrolidin-1-yl)imidazo[1,2-b]pyridazin-2-yl)phenyl)pivalamide] |
| 31 | 34 | 300 to 3000 | < 300 | < 300 | CCN[C@@H]1CCN(c2ccc3nc(-c4ccc(C)c(NC(=O)C(C)(C)C)c4)cn3n2)C1 [Example 393, (R)-N-(5-(6-(3-(ethylamino)pyrrolidin-1-yl)imidazo[1,2-b]pyridazin-2-yl)-2-methylphenyl)pivalamide] |
| 41 | 189 |  |  |  | CCN[C@H]1CCN(c2ccc3nc(-c4ccc(C)c(NC(=O)C(C)(C)C)c4)cn3n2)C1 [Example 394, (S)-N-(5-(6-(3-(ethylamino)pyrrolidin-1-yl)imidazo[1,2-b]pyridazin-2-yl)-2-methylphenyl)pivalamide] |
| 15 | 87 |  |  |  | Cc1ccc(-c2cn3nc(-c4cccc(F)c4C(F)(F)F)ccc3n2)cc1NC(=O)C(C)(C)C [Example 395, N-(5-(6-(3-fluoro-2-(trifluoromethyl)phenyl)imidazo[1,2-b]pyridazin-2-yl)-2-methylphenyl)pivalamide] |
| 31 | 82 |  |  |  | Cc1ccc(-c2cn3nc(-c4ccc(F)cc4C(F)(F)F)ccc3n2)cc1NC(=O)C(C)(C)C [Example 396, N-(5-(6-(4-fluoro-2-(trifluoromethyl)phenyl)imidazo[1,2-b]pyridazin-2-yl)-2-methylphenyl)pivalamide] |
| 73 | 315 | < 300 | < 300 | < 300 | Cc1ccc(-c2cn3nc(-c4c(F)cccc4C(F)(F)F)ccc3n2)cc1NC(=O)C(C)(C)C [Example 397, N-(5-(6-(2-fluoro-6-(trifluoromethyl)phenyl)imidazo[1,2-b]pyridazin-2-yl)-2-methylphenyl)pivalamide] |
| 105 | 175 | < 300 | < 300 | < 300 | Cc1ccc(-c2cn3nc(-c4cc(O)ccc4C(F)(F)F)ccc3n2)cc1NC(=O)C(C)(C)C [Example 399, N-(5-(6-(5-hydroxy-2-(trifluoromethyl)phenyl)imidazo[1,2-b]pyridazin-2-yl)-2-methylphenyl)pivalamide] |
| 11 | 39 | < 300 | < 300 | < 300 | Cc1ccc(-c2cn3nc(-c4ncccc4C(F)(F)F)ccc3n2)cc1NC(=O)C(C)(C)C [Example 400, N-(2-methyl-5-(6-(3-(trifluoromethyl)pyridin-2-yl)imidazo[1,2-b]pyridazin-2-yl)phenyl)pivalamide] |
| 400 | 234 |  |  |  | Cc1ccc(-c2cn3nc(-c4ccc(-c5ccc(Cl)nc5)nc4)ccc3n2)cc1NC(=O)C(C)(C)C [Example 401, N-(5-(6-(6′-chloro-2,3′-bipyridin-5-yl)imidazo[1,2-b]pyridazin-2-yl)-2-methylphenyl)pivalamide] |
| 121 | 403 | 300 to 3000 | < 300 | 300 to 3000 | CCOC(=O)COc1cccc(-c2ccc3nc(-c4ccc(C)c(NC(=O)C(C)(C)C)c4)cn3n2)c1C(F)(F)F [Example 410, ethyl 2-(3-(2-(4-methyl-3-pivalamidophenyl)imidazo[1,2-b]pyridazin-6-yl)-2-(trifluoromethyl)phenoxy)acetate] |
| 251 | 679 |  |  |  | CCOC(=O)COc1ccc(-c2ccc3nc(-c4ccc(C)c(NC(=O)C(C)(C)C)c4)cn3n2)c(C(F)(F)F)c1 [Example 411, ethyl 2-(4-(2-(4-methyl-3-pivalamidophenyl)imidazo[1,2-b]pyridazin-6-yl)-3-(trifluoromethyl)phenoxy)acetate] |
| 225 | 665 | 300 to 3000 | < 300 | 300 to 3000 | CCOC(=O)CCCCCOc1ccc(-c2ccc3nc(-c4ccc(C)c(NC(=O)C(C)(C)C)c4)cn3n2)c(C(F)(F)F)c1 [Example 412, ethyl 6-(4-(2-(4-methyl-3-pivalamidophenyl)imidazo[1,2-b]pyridazin-6-yl)-3-(trifluoromethyl)phenoxy)hexanoate] |
| 318 | 548 |  |  |  | CCOC(=O)CCCCCCOc1ccc(-c2ccc3nc(-c4ccc(C)c(NC(=O)C(C)(C)C)c4)cn3n2)c(C(F)(F)F)c1 [Example 413, ethyl 7-(4-(2-(4-methyl-3-pivalamidophenyl)imidazo[1,2-b]pyridazin-6-yl)-3-(trifluoromethyl)phenoxy)heptanoate] |
| 380 |  | 300 to 3000 | 300 to 3000 | 3000 to 30000 | Cc1ccc(-c2cn3nc(-c4ccc(OCCCCCCC(=O)NO)cc4C(F)(F)F)ccc3n2)cc1NC(=O)C(C)(C)C [Example 417, N-hydroxy-7-(4-(2-(4-methyl-3-pivalamidophenyl)imidazo[1,2-b]pyridazin-6-yl)-3-(trifluoromethyl)phenoxy)heptanamide] |
| 869 | 312 |  |  |  | CCOC(=O)CCCCCOc1cccc(-c2ccc3nc(-c4ccc(C)c(NC(=O)C(C)(C)C)c4)cn3n2)c1C(F)(F)F [Example 422, ethyl 6-(3-(2-(4-methyl-3-pivalamidophenyl)imidazo[1,2-b]pyridazin-6-yl)-2-(trifluoromethyl)phenoxy)hexanoate] |
| 1560 | 265 |  |  |  | CCOC(=O)CCCCCCOc1cccc(-c2ccc3nc(-c4ccc(C)c(NC(=O)C(C)(C)C)c4)cn3n2)c1C(F)(F)F [Example 423, ethyl 7-(3-(2-(4-methyl-3-pivalamidophenyl)imidazo[1,2-b]pyridazin-6-yl)-2-(trifluoromethyl)phenoxy)heptanoate] |
| 7460 | 4100 |  |  |  | CCOC(=O)CCCCCOc1ccc(C(F)(F)F)c(-c2ccc3nc(-c4ccc(C)c(NC(=O)C(C)(C)C)c4)cn3n2)c1 [Example 424, ethyl 6-(3-(2-(4-methyl-3-pivalamidophenyl)imidazo[1,2-b]pyridazin-6-yl)-4-(trifluoromethyl)phenoxy)hexanoate] |
| 86 | 239 |  |  |  | CCOC(=O)CCCCCCOc1ccc(C(F)(F)F)c(-c2ccc3nc(-c4ccc(C)c(NC(=O)C(C)(C)C)c4)cn3n2)c1 [Example 425, ethyl 7-(3-(2-(4-methyl-3-pivalamidophenyl)imidazo[1,2-b]pyridazin-6-yl)-4-(trifluoromethyl)phenoxy)heptanoate] |
| 170 | 707 |  |  |  | CCOC(=O)CCCOc1cccc(-c2ccc3nc(-c4ccc(C)c(NC(=O)C(C)(C)C)c4)cn3n2)c1C(F)(F)F [Example 426, ethyl 4-(3-(2-(4-methyl-3-pivalamidophenyl)imidazo[1,2-b]pyridazin-6-yl)-2-(trifluoromethyl)phenoxy)butanoate] |
| 27 | 176 |  |  |  | CCOC(=O)CCCCOc1ccc(-c2ccc3nc(-c4ccc(C)c(NC(=O)C(C)(C)C)c4)cn3n2)c(C(F)(F)F)c1 [Example 427, ethyl 5-(4-(2-(4-methyl-3-pivalamidophenyl)imidazo[1,2-b]pyridazin-6-yl)-3-(trifluoromethyl)phenoxy)pentanoate] |
| 78 | 734 |  |  |  | CCOC(=O)CCCOc1ccc(-c2ccc3nc(-c4ccc(C)c(NC(=O)C(C)(C)C)c4)cn3n2)c(C(F)(F)F)c1 [Example 428, ethyl 4-(4-(2-(4-methyl-3-pivalamidophenyl)imidazo[1,2-b]pyridazin-6-yl)-3-(trifluoromethyl)phenoxy)butanoate] |
| 167 | 1280 | 300 to 3000 | 3000 to 30000 | 300 to 3000 | Cc1ccc(-c2cn3nc(-c4cccnc4C(F)(F)F)ccc3n2)cc1NC(=O)CCCCCCC(=O)NO [Example 429, N^1-hydroxy-N^8-(2-methyl-5-(6-(2-(trifluoromethyl)pyridin-3-yl)imidazo[1,2-b]pyridazin-2-yl)phenyl)octanediamide] |
